A short description of one series: Solubility in water. The format is physicochemical.
A short description of series [1]: Sterilization tests (heat sterilization of aqueous peptide solutions, analysed by capillary isotachophoresis and HPLC). Type of series: physicochemical. The conditions noted are these: heat sterilization (121° C.). The procedure: Starting from a stock solution of the tripeptide of the invention so obtained (2 mmol/1 in tris-buffer) solutions having pH-values of 5.5, 6.5, 7.5 and 8.5 were prepared by addition of 0.1 N HCL or KOH, respectively. Thereafter 0.1 ml each of these solutions were filled into ampoules purified with chromosulfuric acid, met sealed under vacuum and sterilized over 8, 12, 15 or 30 min, respectively.
Further respective solution of the cystinyl-bis-alanine-tripeptide were prepared and treated analogeously.
The stock solutions as well as the sterilized samples were analysized by means of capillary-isotachophoreses and HPLC. […] Therefore, said tripeptides are not only suitable for oral preparations, but also and in particular for the preparation of parenteral infusion solutions.

A short description of series [2]: In vivo utilization: single injection via vena cava catheter, plasma peptide/amino acid concentrations by RP-HPLC after DANSYL derivatization. Also noted: species or system male Wistar-rats. Conditions: for tripeptide concentration in plasma: 20 μmol/100 g bw. The procedure:
For physiological investigation of the in vivo utilization of bis-amino acid cystine-peptides bis-glycyl-L-cystine and bis-L-alanyl-L-cystine were selected as examples and injected into male Wistar-rats in the form of a peptide single injection (50 μmole/100 g bw and 20 μmole/100 g bw respectively, injection volume 0.5-1 ml), by means of a vena cava-catheter within 5 s. The withdrawal of blood (1 ml in herparinized syringes) was 30, 60, 120, 180 and 300 s after application of the peptides. The plasma obtained by centrifugation was subsequently treated with 30% SSA (ratio of sample to SSA 10:1) for precipitation, maintained 1 h at 4° C., and finally centrifuged.
For determination of the bis-glycyl-L-cystine, mono-glycyl-L-cystine, bis-L-alanyl-L-cystine, mono-L-alanyl-L-cystine peptides as well as of the free amino acids glycine, alanine and cystine the precipitated plasma samples were analysed by high pressure liquid chromatography after pre-column derivatization with 5 dimethylaminonaphthaline-1-sulphonylchloride (DANSYL-Cl). The analytical conditions are summarized below:
RP-HPLC after DANSYL-Precolumn Derivatization
Column: Spherisorb ODS 11 3 μm (125×4.6 mm)
(A) 12.5 mM Na-phosphate-buffer of pH 6.6
Detection: fluorescence Em 550/Ex 325

For series [3] the following is noted: cited from earlier work.
Where [4] appears, read: 30 s after injection, 50 μmole/100 g bw.
[5] abbreviates: first measurement (30 s), 20 μmole/100 g bw.

Like-named read-outs stand apart in the source and are kept apart here. Where a SMILES comes first, the peptide text is derived from it. Bridges are numbered along the chain shown (N, C = ends). Roman numbers before positions name the chains, in order.

In general, half-life refers to how long it takes for the measured level to halve. For `C[C@H](N)C(=O)N[C@@H](CSSC[C@H](NC(=O)[C@H](C)N)C(=O)O)C(=O)O` [(ala-cys)2, N,N'-bis-L-alanyl-L-cystine] (I: H-Ala-Cys-OH / II: H-Ala-Cys-OH; disulfide I:2-II:2), in the series “Solubility in water”, the solubility in water result was “well soluble in water”. Also, the “stability upon heat sterilization in aqueous solution” value in series [1] is on record as “remain stable upon heat sterilization”. Further, in series [2] (20 μmole/100 g bw), the “time after injection within which the tripeptide could be detected in all 6 test animals” value was ≤ 2 min, the “time of maximum plasma alanine concentration” value was 30 s and the “time of maximum plasma cystine concentration” value was found to be 60 s. This compound had a tripeptide concentration in plasma in series [2] (30 s after injection) of 280 µM. Besides, the “concentration of intermediate hydrolysis product ala-(cys)2 relative to the tripeptide” value in series [2] (30 s after injection, 20 μmole/100 g bw) is “about 5 fold”. In addition, the “detection of tripeptide in plasma at the last sampling” value in series [2] (300 s after injection, 20 μmole/100 g bw) was “could not be detected”. Besides, in series [2] (after 60 s, 20 μmole/100 g bw), the “maximum plasma cystine concentration versus starting concentration” value amounted to 23 times. Besides, in series [2] (after 300 s, 20 μmole/100 g bw), the “plasma alanine concentration versus starting level” value is 3 times. Also, the “plasma alanine concentration versus starting level” value in series [2] (at the beginning (30 s), 20 μmole/100 g bw) is recorded as ~7 times. The level at time molar at 0.05 h in series [2] (male, Wistar, rat, plasma, iv, 20 umole/100 g bw, heading: tripeptide concentration in plasma, 180 s after injection, detected in one sample only, 20 μmole/100 g bw) is ~20 µM. The half-life in series [2] (male, Wistar, rat, plasma, iv, 20 μmole/100 g bw, concluded from data, not calculable, read-out: plasma half-life) is < 2 min. Besides, the “clearance from the plasma after single injection” value in series [2] (rat) is “rapidly cleared from the plasma”.

Regarding `NCC(=O)N[C@@H](CSSC[C@H](NC(=O)CN)C(=O)O)C(=O)O` [(gly-cys)2, N,N'-bis-glycyl-L-cystine] (I: H-Gly-Cys-OH / II: H-Gly-Cys-OH; disulfide I:2-II:2), the “tripeptide plasma concentration 5 min after injection relative to the value after 30 s” value in series [2] (50 μmole/100 g bw single injection, rat plasma) is reported as “about 10%”. For the same compound, the tripeptide concentration in plasma in series [2] (30 s after injection) was found to be 655 µM. Moreover, in series [2] (setting [4]), the “plasma cystine concentration versus starting concentration” value worked out at 14 fold and the “plasma glycine concentration versus starting concentration” value was 12 fold. The “plasma cystine concentration versus starting value” in series [2] (5 min after injection, 50 μmole/100 g bw) is “about 30 times”. For the same compound, in series [2] (setting [5]), the “plasma cystine concentration versus starting point” value is reported as 10 fold and the “plasma glycine concentration versus starting point” value is reported as 5 fold. Also, the half-life in series [2] (male, Wistar, rat, plasma, iv, two compartment model, residual method, n=5, 50 μmole/100 g bw, read-out: calculated half-life (converted)) was 4 min. Besides, the “clearance from the plasma after single injection” value in series [2] (rat) is reported as “rapidly cleared from the plasma”. In series [3], the “solubility in water (prior art statement)” value is “soluble”.

`C[C@H](NC(=O)[C@@H](N)CSSC[C@H](N)C(=O)N[C@@H](C)C(=O)O)C(=O)O` [L-cystinyl-bis-L-alanine] (I: H-Cys-Ala-OH / II: H-Cys-Ala-OH; disulfide I:1-II:1): in the series “Solubility in water”, the solubility in water result is “well soluble in water”. Besides, in series [1], the “stability upon heat sterilization in aqueous solution” value is recorded as “unstable upon heat sterilization” and the “time of heat sterilization after which other derivatives are formed” value is ≤ 8 min.

As to `CC(=O)N[C@@H](CSSC[C@H](NC(C)=O)C(=O)O)C(=O)O` [N,N'-bis-acetylcystine, reference compound], in series [3], the “solubility in water (prior art statement)” value is “relatively high solubility in water”.

The values above are taken from US4968696A, “N,N'-bis-L-amino acid-L-cystine-peptide containing amino acid preparations for oral parenteral nutrition” (Pfrimmer + Co. Pharmazeutische Werke Erlangen GmbH + co. KG, priority 1986, dated 1990).
